In the assay the test system is MV4-11 cells. Description: Cell proliferation assay MV4;11 (CellTiter-Glo, 72 hours). The assay is classed as cell-based. Conditions: Homo sapiens; MV4;11 leukemia cell line, 72 hours; read-out: MV4; 11 IC50. As for the experimental part:
Compounds were evaluated for its capacity to inhibit the proliferation of the MLLr leukemia cell line MV4-11 that harbors an MLL1-AF4 fusion protein. MV4-11 cells were cultured for 72 hours with limiting dilutions of compounds and viability was measured using CellTiter-Glo.
Compounds were dissolved to obtain as 10 mM solution in DMSO. The stock was diluted 1:5 to the top concentration of 2 mM in 100% DMSO. For IC50 determination, serial 1:3.16 dilutions were prepared in 100% DMSO by diluting 20 μL into 43.5 μL of DMSO for 8 concentrations. Each prepared DMSO solution were further diluted 1:500 in the cell culture media to obtain the 2× dosing solutions. The final concentrations of tested compounds in the cell culture media ranged from 0.632 nM to 2000 nM.
MV4-11 cells were cultured in IMDM with 10% FBS and 1× Penicillin-Streptomycin at 5% CO2 and 37° C. A cell suspension was prepared containing 15,000 cells/ml in the culture medium and 100 μL of this suspension was added per well to a 96-well cell culture plate. Then, 100 μL of 2× dosing media containing test compounds were added bringing the total volume to 200 μL. These cells were cultured for 72 hours at 37° C. and 5% CO2 in a humidified incubator.
After 72 hours, the cultured cells were mixed and 100p L was transferred to a 96-well black plate. Cell Titer Glo (100 μl) was then added to this plate. The plate was mixed with shaking for 15 mins at RT, the luminescence was then measured using Tecan Spark 20M spectrophotometer. Cell Viability (%) was determined by RLU of test/RLU average vehicle control*100 and % max inhibition was determined by 100−(% cell viability remaining at the top concentration of compound).
For orientation: Cellular ATP, detected with luciferase, serves as a proxy for viable cell number.

Bounds are passed on as bounds.

As for `CC(C)N(C(=O)c1cc(F)ccc1Oc1cncnc1N1CC2(CCN(C[C@@H]3CC[C@@H](NS(=O)(=O)C4COC4)CO3)CC2)C1)C1CC1` [Example 22, N-Cyclopropyl-5-fluoro-N-isopropyl-2-((4-(7-(((2S,5R)-5-(oxetane-3-sulfonamido)tetrahydro-2H-pyran-2-yl)methyl)-2,7-diazaspiro[3.5]nonan-2-yl)pyrimidin-5-yl)oxy)benzamide], the IC50 is 100 to 1000 nM. Consider `C[C@@H]1COC[C@H](C)N1C(=O)c1cc(F)ccc1Oc1cncnc1N1CC2(CCN(C[C@@H]3CC[C@@H](NS(C)(=O)=O)CO3)CC2)C1` [Example 23, N-((3R,6S)-6-((2-(5-(2-((3S,5R)-3,5-Dimethylmorpholine-4-carbonyl)-4-fluorophenoxy)pyrimidin-4-yl)-2,7-diazaspiro[3.5]nonan-7-yl)methyl)tetrahydro-2H-pyran-3-yl)methanesulfonamide], for which the IC50 lay within 100 to 1000 nM. Consider `CCS(=O)(=O)N[C@@H]1CC[C@@H](CN2CCC3(CC2)CN(c2ncncc2Oc2ccc(F)cc2C(=O)N2[C@H](C)COC[C@@H]2C)C3)OC1` [Example 24, N-((3R,6S)-6-((2-(5-(2-((3S,5R)-3,5-dimethylmorpholine-4-carbonyl)-4-fluorophenoxy)pyrimidin-4-yl)-2,7-diazaspiro[3.5]nonan-7-yl)methyl)tetrahydro-2H-pyran-3-yl)ethanesulfonamide], for which the IC50 is less than 100 nM. For the compound `CC(C)S(=O)(=O)N[C@@H]1CC[C@@H](CN2CCC3(CC2)CN(c2ncncc2Oc2ccc(F)cc2C(=O)N2[C@H](C)COC[C@@H]2C)C3)OC1` [Example 25, N-((3R,6S)-6-((2-(5-(2-((3S,5R)-3,5-Dimethylmorpholine-4-carbonyl)-4-fluorophenoxy)pyrimidin-4-yl)-2,7-diazaspiro[3.5]nonan-7-yl)methyl)tetrahydro-2H-pyran-3-yl)propane-2-sulfonamide], the IC50 is less than 100 nM. The figure for `C[C@@H]1COC[C@H](C)N1C(=O)c1cc(F)ccc1Oc1cncnc1N1CC2(CCN(C[C@@H]3CC[C@@H](NS(=O)(=O)C4CC4)CO3)CC2)C1` [Example 26, N-((3R,6S)-6-((2-(5-(2-((3S,5R)-3,5-Dimethylmorpholine-4-carbonyl)-4-fluorophenoxy)pyrimidin-4-yl)-2,7-diazaspiro[3.5]nonan-7-yl)methyl)tetrahydro-2H-pyran-3-yl)cyclopropanesulfonamide] is less than 100 nM; for `C[C@@H]1COC[C@H](C)N1C(=O)c1cc(F)ccc1Oc1cncnc1N1CC2(CCN(C[C@@H]3CC[C@@H](NS(=O)(=O)C4COC4)CO3)CC2)C1` [Example 27, N-((3R,6S)-6-((2-(5-(2-((3S,5R)-3,5-Dimethylmorpholine-4-carbonyl)-4-fluorophenoxy)pyrimidin-4-yl)-2,7-diazaspiro[3.5]nonan-7-yl)methyl)tetrahydro-2H-pyran-3-yl)oxetane-3-sulfonamide] it is 100 to 1000 nM; for `C[C@@H]1COC[C@@H](C)N1C(=O)c1cc(F)ccc1Oc1cncnc1N1CC2(CCN(C[C@@H]3CC[C@@H](NS(C)(=O)=O)CO3)CC2)C1` [Example 28, N-((3R,6S)-6-((2-(5-(2-((3R,5R)-3,5-Dimethylmorpholine-4-carbonyl)-4-fluorophenoxy)pyrimidin-4-yl)-2,7-diazaspiro[3.5]nonan-7-yl)methyl)tetrahydro-2H-pyran-3-yl)methanesulfonamide] it is 100 to 1000 nM.

Regarding `CCS(=O)(=O)N[C@@H]1CC[C@@H](CN2CCC3(CC2)CN(c2ncncc2Oc2ccc(F)cc2C(=O)N2[C@H](C)COC[C@H]2C)C3)OC1` [Example 29, N-((3R,6S)-6-((2-(5-(2-((3R,5R)-3,5-Dimethylmorpholine-4-carbonyl)-4-fluorophenoxy)pyrimidin-4-yl)-2,7-diazaspiro[3.5]nonan-7-yl)methyl)tetrahydro-2H-pyran-3-yl)ethanesulfonamide], the IC50 was less than 100 nM. With `CC(C)S(=O)(=O)N[C@@H]1CC[C@@H](CN2CCC3(CC2)CN(c2ncncc2Oc2ccc(F)cc2C(=O)N2[C@H](C)COC[C@H]2C)C3)OC1` [Example 30, N-((3R,6S)-6-((2-(5-(2-((3R,5R)-3,5-Dimethylmorpholine-4-carbonyl)-4-fluorophenoxy)pyrimidin-4-yl)-2,7-diazaspiro[3.5]nonan-7-yl)methyl)tetrahydro-2H-pyran-3-yl)propane-2-sulfonamide], the IC50 was less than 100 nM. `C[C@@H]1COC[C@@H](C)N1C(=O)c1cc(F)ccc1Oc1cncnc1N1CC2(CCN(C[C@@H]3CC[C@@H](NS(=O)(=O)C4CC4)CO3)CC2)C1` [Example 31, N-((3R,6S)-6-((2-(5-(2-((3R,5R)-3,5-dimethylmorpholine-4-carbonyl)-4-fluorophenoxy)pyrimidin-4-yl)-2,7-diazaspiro[3.5]nonan-7-yl)methyl)tetrahydro-2H-pyran-3-yl)cyclopropanesulfonamide]: the IC50 was less than 100 nM. The figure for `C[C@@H]1COC[C@@H](C)N1C(=O)c1cc(F)ccc1Oc1cncnc1N1CC2(CCN(C[C@@H]3CC[C@@H](NS(=O)(=O)C4COC4)CO3)CC2)C1` [Example 32, N-((3R,6S)-6-((2-(5-(2-((3R,5R)-3,5-Dimethylmorpholine-4-carbonyl)-4-fluorophenoxy)pyrimidin-4-yl)-2,7-diazaspiro[3.5]nonan-7-yl)methyl)tetrahydro-2H-pyran-3-yl)oxetane-3-sulfonamide] is 100 to 1000 nM.

In the case of `CCS(=O)(=O)N[C@@H]1CC[C@@H](CN2CCC3(CC2)CN(c2ncncc2Oc2ccc(F)cc2C(=O)N(C(C)C)[C@H]2CCOC2)C3)OC1` [Example 33, 2-((4-(7-(((2S,5R)-5-(Ethylsulfonamido)tetrahydro-2H-pyran-2-yl)methyl)-2,7-diazaspiro[3.5]nonan-2-yl)pyrimidin-5-yl)oxy)-5-fluoro-N-isopropyl-N-((S)-tetrahydrofuran-3-yl)benzamide], the IC50 is less than 100 nM.

For the compound `CCS(=O)(=O)N[C@@H]1CC[C@@H](CN2CCC3(CC2)CN(c2ncncc2Oc2ccc(F)cc2C(=O)N(CC(F)F)C(C)C)C3)OC1` [Example 34, N-(2,2-Difluoroethyl)-2-((4-(7-(((2S,5R)-5-(ethylsulfonamido)tetrahydro-2H-pyran-2-yl)methyl)-2,7-diazaspiro[3.5]nonan-2-yl)pyrimidin-5-yl)oxy)-5-fluoro-N-isopropylbenzamide], the IC50 was less than 100 nM.

As for `CCS(=O)(=O)N[C@@H]1CC[C@@H](CN2CCC3(CC2)CN(c2ncncc2Oc2ccc(F)cc2C(=O)N(CCOC)C(C)C)C3)OC1` [Example 35, 2-((4-(7-(((2S,5R)-5-(Ethylsulfonamido)tetrahydro-2H-pyran-2-yl)methyl)-2,7-diazaspiro[3.5]nonan-2-yl)pyrimidin-5-yl)oxy)-5-fluoro-N-isopropyl-N-(2-methoxyethyl)benzamide], the IC50 was less than 100 nM. For the compound `CCS(=O)(=O)N[C@@H]1CC[C@@H](CN2CCC3(CC2)CN(c2ncncc2Oc2ccc(F)cc2C(=O)N2[C@H](C)CCC[C@@H]2C)C3)OC1` [Example 36, N-((3R,6S)-6-((2-(5-(2-((2S,6R)-2,6-Dimethylpiperidine-1-carbonyl)-4-fluorophenoxy)pyrimidin-4-yl)-2,7-diazaspiro[3.5]nonan-7-yl)methyl)tetrahydro-2H-pyran-3-yl)ethanesulfonamide], the IC50 is less than 100 nM. For the compound `CCN(C(=O)c1cc(F)ccc1Oc1cncnc1N1CC2(CCN(C[C@@H]3CC[C@@H](NC(=O)NCC(F)(F)F)CO3)CC2)C1)C(C)C` [Example 37, N-Ethyl-5-fluoro-N-isopropyl-2-((4-(7-(((2S,5R)-5-(3-(2,2,2-trifluoroethyl)ureido)tetrahydro-2H-pyran-2-yl)methyl)-2,7-diazaspiro[3.5]nonan-2-yl)pyrimidin-5-yl)oxy)benzamide], the IC50 was less than 100 nM. Then `CCCNC(=O)N[C@@H]1CC[C@@H](CN2CCC3(CC2)CN(c2ncncc2Oc2ccc(F)cc2C(=O)N(CC)C(C)C)C3)OC1` [Example 38, N-Ethyl-5-fluoro-N-isopropyl-2-((4-(7-(((2S,5R)-5-(3-propylureido)tetrahydro-2H-pyran-2-yl)methyl)-2,7-diazaspiro[3.5]nonan-2-yl)pyrimidin-5-yl)oxy)benzamide], with 100 to 1000 nM. Take `CCNC(=O)N[C@@H]1CC[C@@H](CN2CCC3(CC2)CN(c2ncncc2Oc2ccc(F)cc2C(=O)N(CC)C(C)C)C3)OC1` [Example 39, N-Ethyl-2-((4-(7-(((2S,5R)-5-(3-ethylureido)tetrahydro-2H-pyran-2-yl)methyl)-2,7-diazaspiro[3.5]nonan-2-yl)pyrimidin-5-yl)oxy)-5-fluoro-N-isopropylbenzamide]: the IC50 is less than 100 nM. `C[C@H]1COCCN1C(=O)c1cc(F)ccc1Oc1cncnc1N1CC2(CCN(C[C@@H]3CC[C@@H](NS(=O)(=O)C4CC4)CO3)CC2)C1` [Example 40, N-((3R,6S)-6-((2-(5-(4-Fluoro-2-((S)-3-methylmorpholine-4-carbonyl)phenoxy)pyrimidin-4-yl)-2,7-diazaspiro[3.5]nonan-7-yl)methyl)tetrahydro-2H-pyran-3-yl)cyclopropanesulfonamide]: the IC50 was in the range of 100 to 1000 nM.
